Patent publication US12544426B2, “Combination therapy with CD13-targeted chimeric proteins or chimeric protein complexes” (Orionis Biosciences, Inc., priority 2019, dated 2026)

Assays:
B16BI6 tumor = assay: B16BI6 melanoma model, tumor growth; assay type: in vivo, mouse; conditions: Example 5, alone or combined with birinapant
From the text: FIG. 2A is a graph showing the change in B16BI6 tumor size in B16 mice treated with PBS, CD8-targeted chimeric protein (CD8-Actaferon) alone, BcII10 targeted mutated murine TNF (Y114L) alone, or CD8-targeted chimeric protein (CD8-Actaferon) and BcII10 targeted mutated murine TNF (Y114L). FIG. 2B is a graph showing the change in B16BI6 tumor size in B16 mice treated with PBS, CD8-targeted chimeric protein (CD8-Actaferon) alone, CD13 targeted mutated murine TNF (Y114L) alone, or CD8-targeted chimeric protein (CD8-Actaferon) and CD13 targeted mutated murine TNF (Y114L). […] Tumor growth is shown as mean TSI+SEM (n=6 per group). The line under the graph represents the treatment period. […] Error bars are SEM. ***, p<0.001 by one-way ANOVA with Bonferroni's multiple comparison test. […]
FIG. 7A: Toxicity of wt sc mTNF and mutant Y86F after injection (T) in naïve C56BU6 mice. […] FIG. 7B: Plasma IL-6 concentrations measured via ELISA. […]
FIG. 8A and 8B: B16BI6 tumor growth after daily p.1. treatment with 7 μg mTNF, 30 μg hTNF alone or in combination with 10000 IU mIFN-γ in wt C57BL/6 mice (a) or homozygous Flk1 dnIFN-γR transgenic mice. […] FIG. 8C: IL-8 concentration in HUVEC supernatant after 24 h stimulation with the indicated concentration of sc hTNF mutant Y87F (Y87F), hCD13-AFR or wt hTNF, alone or in combination with 200 ng/ml hIFN-γ, measured via ELISA. […]

HUVEC = assay: IL-8 secretion by HUVECs (ELISA of supernatant); assay type: cell-based, human; conditions: 24 h stimulation, 200 ng/ml hIFN-γ where used
Experimental: FIG. 8A and 8B: B16BI6 tumor growth after daily p.1. treatment with 7 μg mTNF, 30 μg hTNF alone or in combination with 10000 IU mIFN-γ in wt C57BL/6 mice (a) or homozygous Flk1 dnIFN-γR transgenic mice. The line under the graph represents the treatment period. Tumor growth is depicted as mean TSI, error bars are SEM (n=5 per group). FIG. 8C: IL-8 concentration in HUVEC supernatant after 24 h stimulation with the indicated concentration of sc hTNF mutant Y87F (Y87F), hCD13-AFR or wt hTNF, alone or in combination with 200 ng/ml hIFN-γ, measured via ELISA. Error bars are SEM. ns, non-significant; p<0.01; ***, p<0.001 by one-way ANOVA with Bonferroni's multiple comparison test. FIG. 8D: Schematic representation of AFN-II, consisting of a VHH fused via a 20×GGS linker to an engineered IFN-γ (e-IFN-γ) variant and N-terminal affinity tag. FIG. 8E: Viability of B16BI6 parental or mCD20-expressing cells after 72 h stimulation with wt mIFN-γ or de18 mutant fused to a BcII10 or mCD20 VHH, in the presence of 60 ng/ml mTNF. Cell viability was measured via an ATP luminescence assay. Each point is the mean of three replicates and error bars are SEM.
It was also tested whether IFN-γ could sensitize HUVECs to TNF, using either wtTNF or hCD13-AFR.

Molecule | Tumor growth (FIG. 5A) (B16BI6 tumor) | IL-8 secretion by HUVECs (HUVEC)
CC[C@H](NC(=O)[C@H](C)NC)C(=O)N1C[C@@H](O)C[C@H]1Cc1c(-c2[nH]c3cc(F)ccc3c2C[C@@H]2C[C@H](O)CN2C(=O)[C@H](CC)NC(=O)[C@H](C)NC)[nH]c2cc(F)ccc12 [birinapant] | very little effect on tumor growth | –
IFN-γ: human IFN-γ used on HUVECs, 200 ng/ml (protein) QDPYVKEAENLKKYFNAGHSDVADNGTLFLGILKNWKEESDRKIMQSQIVSFYFKLFKNFKDDQSIQKSVETIKEDMNVKFFNSNKKKRDDFEKLTNYSVTDLNVQRKAIHELIQVMAELSPAAKTGKRKRSQMLFRGRRASQ | – | no effect on IL-8 secretion
